ChEMBL document CHEMBL1201862, “PubChem BioAssay data set” (2004)
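Tested at 5 concentrations; 48 h exposure; 96-well plates; endpoints linearly interpolated, else capped at highest concentration. At the GI50, growth is halved.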 The source made the active and inactive calls. Cut-off read from the data, not from the text of the source: active = GI50 up to about 1.1 µM and inactive = higher.

What was measured:
Experiment in all cases: NCI tumour cell line growth inhibition, 48 h
UACC-257 = system: UACC-257
SNB-78 = system: SNB-78
MCF7 = system: MCF7
DMS-114 = system: DMS-114
DMS-273 = system: DMS-273
M19-MEL = system: M19-MEL
LXFL 529 = system: LXFL 529

Structure (SMILES) | GI50 (UACC-257) | GI50 (SNB-78) | GI50 (MCF7) | GI50 (DMS-114) | GI50 (DMS-273) | GI50 (M19-MEL) | GI50 (LXFL 529)
CC(=O)OCc1cc(=O)n(C)c2c3c4c(cc12)c(C)cc(=O)n4CO3 | 2050 nM (inactive) | 1990 nM (inactive) | 2300 nM (inactive) | 1690 nM (inactive) | 982 nM (active) | 1430 nM (inactive) | –
COc1ccc(/C(C)=N/NC(=S)N(C)C)c(O)c1 | 20900 nM (inactive) | – | – | – | – | – | –
Cn1c(/C=C/CO)c(CO)c2c1C(=O)C=C(N1CC1)C2=O [APAZIQUONE] | < 10 nM (active) | 200 nM (active) | < 10 nM (active) | < 10 nM (active) | < 10 nM (active) | < 10 nM (active) | –
C1=Nc2ccccc2Cn2nncc21 | – | – | – | – | > 10000 nM (inactive) | > 100000 nM (inactive) | 98200 nM (inactive)
Cc1cc(C)c(S(=O)(=O)N(CCCN)OCCCN)c(C)c1 | > 100000 nM (inactive) | – | > 100000 nM (inactive) | – | – | – | –
CO/N=C\c1cc(O)c(O)c(/C=N/OC)c1 | > 100000 nM (inactive) | – | 29300 nM (inactive) | – | – | – | –
